# System: Fmr1 KO2 mice
# Test: Open field repetitive behavior: self grooming, Fmr1 KO2 mice
# Type: in vivo, mouse
# Set-up: Effect on abnormal self grooming phenotype (FIG. 3): dose or concentration left out as unconfirmed
# From the text: Mutant fmr1 knockout (KO) mice recapitulate the Fragile X syndrome (FXS) phenotype and represent a preclinical model for assessment of putative drug treatments. In this study three different mice models of FXS were used: Fmr1 KO1 is the original Fmr1 knockout animal that carries an insertion in exon 5. See, e.g., Bakker C E, et al., The Dutch-Belgian Fragile X Consortium, Fmr1 knockout mice: A model to study fragile X mental retardation. Cell. 1994; 78:23-33 It is a protein null, although Fmr1 mRNA is still present. It is backcrossed to the C57/B16 strain. Subsequently, these mice were bred into different background strains, such as the FVB inbred mouse strain. Fmr1 KO2 is a null allele at Fmr1 generated by deletion of the promoter and first exon of Fmr1. See, Mientjes, E J et al., The generation of a conditional Fmr1 knock out mouse model to study Fmrp function in vivo. Neurobiology of Disease (2006) 21(3): 549-555. It is both protein and mRNA null. Backcrossed to the C57/B16 strain. Genotyping was accomplished using TransnetXY Automated Genotyping (http://www.transnetyx.com/). TRANSNETYX, INC., 8110 Cordova Rd. Suite 119, Cordova, TN 38016, USA.
# The mice were housed in plastic cages (35×30×12 cm), 5 in each and habituated to the animal facilities for at least a week before test. The room temperature (21±2° C.), relative humidity (55±5%), a 12-h light-dark cycle (lights on 7 a.m.-7 p.m.) and air exchange (16 times per h) were automatically controlled. The animals had free access to commercial food pellets and water. Testing was conducted during the light phase. Testing was conducted on Fmr1 knockout mice and their wild-type (WT) littermates. Ten mice per treatment group, 14 weeks of age, were used for behavioral experiments. Experiments were conducted in line with the requirements of the UK Animals (Scientific Procedures) Act, 1986.
# Oral dosing was performed by using 1.5-in. curved, 20-gauge, stainless steel feeding needles with a 2.25-mm ball (Braintree Scientific, Braintree, MA). Each gavage treatment was given in 0.5% methyl cellulose (Methyl Cellulose M0512, Sigma-Aldrich, St Louis, MO) used as vehicle with or without treatment compounds. The same veterinarian, blinded to the treatment groups, performed the procedure, and documented animal reactions to oral gavage. Reactions considered to indicate stress were defined as excessive struggling during gavage or abnormal behavior after gavage (labored breathing, frozen stance, exaggerated jumping, shuddering, and hunched posture).
# For experiments all mice were tested once in the same apparatus. Prior to testing, mice not in the study were placed in the apparatus for some minutes before the experiment. The apparatus was then cleaned with moist and dry tissues before testing each mouse. The aim was to create a low but constant background mouse odor for all experimental subjects. All experiments were conducted with the experimenters blind to genotype and drug treatment during all testing and data analysis. Separate investigators prepared and coded dosing solutions, allocated the mice to the study treatment groups, dosed the animals, and collected the behavioral data. Data were analyzed by one-way analysis of variance (ANOVA) followed by post-hoc comparisons where appropriate using Tukey's Multiple Comparison Test. Data are represented as the mean and standard error of the mean (SEM).
# 2. Open Field Repetitive Behaviors (stereotypies: anticlockwise circling (aka counter revolutions) (CCW) and self grooming). Fmr1 KO2 mice display the autism-like phenotypes of repetitive behaviors like CCW, self grooming and stereotypy that typically involves behaviors such as head bobbing. […]
smiles,measurement,setting,value
"N[C@H]1C=C(C(=O)O)CC1=C(F)F [Compound, (S)-3-Amino-4-(difluoromethylenyl)cyclopent-1-ene-1-carboxylic acid]",Effect on abnormal self grooming phenotype (FIG. 3),,rescued
same,"Time spent grooming (self grooming), WT-Veh vs. KO2-Compound: Significant?",0.01 mg/Kg PO QD seven days,Yes
same,"Time spent grooming (self grooming), WT-Veh vs. KO2-Compound: Significant?",0.05 mg/Kg PO QD seven days,No
same,"Time spent grooming (self grooming), WT-Veh vs. KO2-Compound: Summary",0.05 mg/Kg PO QD seven days,ns
same,"Time spent grooming (self grooming), WT-Veh vs. KO2-Compound: Significant?",0.1 mg/Kg PO QD seven days,No
same,"Time spent grooming (self grooming), WT-Veh vs. KO2-Compound: Summary",0.1 mg/Kg PO QD seven days,ns

# Source: patent publication US12285397B2, “Use of (s)-3-amino-4-(difluoromethylenyl) cyclopent-1-ene-1-carboxylic acid and related compounds, (1S,3S)-3-amino-4-(difluoromethylidene) cyclopentane-1-carboxylic acid and vigabatrin in the treatment of developmental disorders” (Ovid Therapeutics Inc., priority 2018, dated 2025)
